Data as given in US20050009776A1, “Method of treating atrial fibrillation or atrial flutter” (Aderis Pharmaceuticals, Inc., priority 2003, published 2005).
Marks after values point to notes of the source that are not given here.

Columns and labels:
[1] = Example 5: pharmacokinetics and renal function markers of short i.v. infusions in healthy subjects; format: in vivo, human
Method: A study was designed to determine the dose dependent pharmacokinetics (PK) of short i.v. infusions of DTI-0009 in healthy subjects. Ten healthy young volunteer (ages 21 to 35 years old) received a 30-minute infusion of 1 μg/kg DTI-0009, or 5 μg/kg DTI-0009 or saline on three different occasions. The subjects were hydrated by a saline infusion ([…]) for one hour prior to and five hours after the start of the drug infusion. Serial plasma and urine samples were taken over 24 hours to measure DTI-0009 concentrations (as well as glucuronide, in urine only), creatinine, sodium and potassium by validated methods. The following renal function markers were assessed over time: urinary flow rate (UF), creatinine clearance (CLCrea), sodium clearance (CLNa) and potassium clearance (CLK). Additionally, noncompartmental PK analysis was performed and instantaneous renal clearance (CLren^inst) was estimated as a function of UF and CLcrea.

[2] = test system: patients with atrial fibrillation; experiment: Example 4: placebo-controlled 15-minute i.v. infusion, heart rate and blood pressure in atrial fibrillation; format: in vivo, human
Method: A double blind, placebo-controlled study was designed to establish the i.v. dose range of DTI-0009 that safely reduces heart rates in patients with atrial fibrillation. […] The patients' heart rates and blood pressures were measured periodically throughout the treatment period and for 75 and 80 minutes post-infusion, respectively. Safety assessments were made throughout the study and for up to three to seven days post-dose.

[3] = test system: A1 receptor / A3 receptor; experiment: Affinity for adenosine A1 receptor relative to A3 receptor; format: binding
Source text: (§1) Therefore, DTI-0009 may be capable of terminating episodes of supraventricular arrythymias at doses that have little effect on normal heart rate or blood pressure.

[4] = test system: adult patients with rapid atrial fibrillation (AF); experiment: Example 1: ventricular rate control in atrial fibrillation, 15-minute i.v. loading dose plus maintenance dose; format: in vivo, human
Method: A randomized, parallel-group, open label, dose-ranging study of DTI-0009 as a 15-minute intravenous loading dose (LD) followed by a maintenance dose (MD) infusion for up to 20 hours in adult patients with rapid atrial fibrillation (AF) (>120 bpm) was conducted. 78 patients were randomized to receive one of three LD regimens. If the ventricular rate (VR) was between 70 and 90 bpm 5 minutes after the end of the LD, then patients were randomized to one of the following three MDs of DTI-0009: 1.75 μg/kg/hr, 2.25 μg/kg/hr, or 2.75 μg/kg/hr. The MD was adjusted to keep the VR within the 70-90 bpm range.
63 of 69 patients completed the LD, 20 patients received a MD, and 18 patients completed at least 3 hours of MD. The VR remained below 100 bpm across all the dosing regimens during the 3-hour MD.

AV nodal conduction = experiment: Slowing of AV nodal conduction versus heart rate reduction; format: in vivo; conditions: guinea pig
Source text: as §1

SMILES: CCNC(=O)[C@H]1O[C@@H](n2cnc3c(NC4CCCC4)ncnc32)[C@H](O)[C@@H]1O [DTI-0009, N^6-cyclopentyl-5′-(N-ethyl)carboxamidoadenosine]
- Vdss [1]: approached body weight
- duration of inhibitory effects on CLCrea [1]: 1 to 2 h
- duration of inhibitory effects on CLNa [1]: 3 to 4 h
- time at which dose-dependent secondary effects (rebounds) in UF and natriuresis were apparent [1]: 5 to 10 h
- CLnonren with increasing dose ([1]; 1 μg/kg vs 5 μg/kg): appeared unchanged
- CLren reduced with increasing dose ([1]; 1 μg/kg vs 5 μg/kg): 29%
- CLtot reduced with increasing dose ([1]; 1 μg/kg vs 5 μg/kg): 25%
- eliminated unchanged in urine ([1]; 30-minute i.v. infusion of 1 or 5 μg/kg): About 42%
- effect on diuresis, natriuresis and kaliuresis ([1]; initially, dose-dependent inhibition of CLcrea, CLNa and to a lesser extent CLK): transiently reduced diuresis, natriuresis and kaliuresis
- DBP ([2]; 2 μg/kg (11 patients), 30 minutes after start of infusion (BP 35 minutes, footnote c), Baseline 82.2): 77.8^e mmHg
- SBP ([2]; 2 μg/kg (11 patients), 30 minutes after start of infusion (BP 35 minutes, footnote c), Baseline 130.7): 129.5^e mmHg
- DBP ([2]; 2 μg/kg (n = 12), 5 minutes after start of infusion, Baseline 82.2): 87.7 mmHg
- HR ([2]; 2 μg/kg (n = 12), 5 minutes after start of infusion, Baseline 129.9): 117.1^a bpm
- SBP ([2]; 2 μg/kg (n = 12), 5 minutes after start of infusion, Baseline 130.7): 136.6 mmHg
- DBP ([2]; 2 μg/kg (n = 12), 15 minutes after start of infusion, Baseline 82.2): 84.6 mmHg
- HR ([2]; 2 μg/kg (n = 12), 15 minutes after start of infusion, Baseline 129.9): 102.4^b bpm
- SBP ([2]; 2 μg/kg (n = 12), 15 minutes after start of infusion, Baseline 130.7): 134.4 mmHg
- HR ([2]; 2 μg/kg (n = 12), 30 minutes after start of infusion, Baseline 129.9): 112.1^a bpm
- HR ([2]; 4 μg/kg (8 patients), 30 minutes after start of infusion, Baseline 143.9): 115.1^a,d bpm
- DBP ([2]; 4 μg/kg (n = 9), 5 minutes after start of infusion, Baseline 75.0): 76.3 mmHg
- SBP ([2]; 4 μg/kg (n = 9), 5 minutes after start of infusion, Baseline 132.1): 127.4 mmHg
- HR ([2]; 4 μg/kg (n = 9), 5 minutes after start of infusion, Baseline 143.9): 114.9^a bpm
- DBP ([2]; 4 μg/kg (n = 9), 15 minutes after start of infusion, Baseline 75.0): 68.7 mmHg
- SBP ([2]; 4 μg/kg (n = 9), 15 minutes after start of infusion, Baseline 132.1): 132.8 mmHg
- HR ([2]; 4 μg/kg (n = 9), 15 minutes after start of infusion, Baseline 143.9): 100.1^b bpm
- DBP ([2]; 4 μg/kg (n = 9), 30 minutes after start of infusion (BP 35 minutes, footnote c), Baseline 75.0): 72.2 mmHg
- SBP ([2]; 4 μg/kg (n = 9), 30 minutes after start of infusion (BP 35 minutes, footnote c), Baseline 132.1): 122.0 mmHg
- DBP ([2]; 6 μg/kg (n = 9), 5 minutes after start of infusion, Baseline 69.4): 72.9 mmHg
- SBP ([2]; 6 μg/kg (n = 9), 5 minutes after start of infusion, Baseline 122.1): 126.8 mmHg
- HR ([2]; 6 μg/kg (n = 9), 5 minutes after start of infusion, Baseline 140.2): 117.1^a bpm
- DBP ([2]; 6 μg/kg (n = 9), 15 minutes after start of infusion, Baseline 69.4): 70.4 mmHg
- SBP ([2]; 6 μg/kg (n = 9), 15 minutes after start of infusion, Baseline 122.1): 126.8 mmHg
- HR ([2]; 6 μg/kg (n = 9), 15 minutes after start of infusion, Baseline 140.2): 100.4^b bpm
- DBP ([2]; 6 μg/kg (n = 9), 30 minutes after start of infusion (BP 35 minutes, footnote c), Baseline 69.4): 68.7 mmHg
- SBP ([2]; 6 μg/kg (n = 9), 30 minutes after start of infusion (BP 35 minutes, footnote c), Baseline 122.1): 115.4 mmHg
- HR ([2]; 6 μg/kg (n = 9), 30 minutes after start of infusion, Baseline 140.2): 114.4^a bpm
- DBP ([2]; 8 μg/kg (n = 7), 5 minutes after start of infusion, Baseline 82.3): 85.1 mmHg
- SBP ([2]; 8 μg/kg (n = 7), 5 minutes after start of infusion, Baseline 131.6): 141.4 mmHg
- HR ([2]; 8 μg/kg (n = 7), 5 minutes after start of infusion, Baseline 133.7): 101.4^a bpm
- DBP ([2]; 8 μg/kg (n = 7), 15 minutes after start of infusion, Baseline 82.3): 80.3 mmHg
- SBP ([2]; 8 μg/kg (n = 7), 15 minutes after start of infusion, Baseline 131.6): 145.3 mmHg
- HR ([2]; 8 μg/kg (n = 7), 15 minutes after start of infusion, Baseline 133.7): 90.9^a bpm
- DBP ([2]; 8 μg/kg (n = 7), 30 minutes after start of infusion (BP 35 minutes, footnote c), Baseline 82.3): 77.4 mmHg
- SBP ([2]; 8 μg/kg (n = 7), 30 minutes after start of infusion (BP 35 minutes, footnote c), Baseline 131.6): 134.4 mmHg
- HR ([2]; 8 μg/kg (n = 7), 30 minutes after start of infusion, Baseline 133.7): 96.3^a bpm
- DBP ([2]; 10 μg/kg (n = 8), 5 minutes after start of infusion, Baseline 75.9): 83.1 mmHg
- SBP ([2]; 10 μg/kg (n = 8), 5 minutes after start of infusion, Baseline 128.3): 140.6 mmHg
- HR ([2]; 10 μg/kg (n = 8), 5 minutes after start of infusion, Baseline 142.5): 110.0^b bpm
- DBP ([2]; 10 μg/kg (n = 8), 15 minutes after start of infusion, Baseline 75.9): 73.0 mmHg
- SBP ([2]; 10 μg/kg (n = 8), 15 minutes after start of infusion, Baseline 128.3): 125.8 mmHg
- HR ([2]; 10 μg/kg (n = 8), 15 minutes after start of infusion, Baseline 142.5): 95.4^a bpm
- DBP ([2]; 10 μg/kg (n = 8), 30 minutes after start of infusion (BP 35 minutes, footnote c), Baseline 75.9): 71.3 mmHg
- SBP ([2]; 10 μg/kg (n = 8), 30 minutes after start of infusion (BP 35 minutes, footnote c), Baseline 128.3): 126.1 mmHg
- HR ([2]; 10 μg/kg (n = 8), 30 minutes after start of infusion, Baseline 142.5): 104.6^a bpm
- DBP ([2]; 12 μg/kg (n = 4), 5 minutes after start of infusion, Baseline 80.5): 82.5 mmHg
- SBP ([2]; 12 μg/kg (n = 4), 5 minutes after start of infusion, Baseline 119.5): 131.5 mmHg
- HR ([2]; 12 μg/kg (n = 4), 5 minutes after start of infusion, Baseline 120.0): 82.0^a bpm
- DBP ([2]; 12 μg/kg (n = 4), 15 minutes after start of infusion, Baseline 80.5): 78.5 mmHg
- SBP ([2]; 12 μg/kg (n = 4), 15 minutes after start of infusion, Baseline 119.5): 122.5 mmHg
- HR ([2]; 12 μg/kg (n = 4), 15 minutes after start of infusion, Baseline 120.0): 74.5^a bpm
- DBP ([2]; 12 μg/kg (n = 4), 30 minutes after start of infusion (BP 35 minutes, footnote c), Baseline 80.5): 68.5^a mmHg
- SBP ([2]; 12 μg/kg (n = 4), 30 minutes after start of infusion (BP 35 minutes, footnote c), Baseline 119.5): 118.5 mmHg
- HR ([2]; 12 μg/kg (n = 4), 30 minutes after start of infusion, Baseline 120.0): 88.0^a bpm
- changes in systolic or diastolic blood pressures ([2]; any treatment group, infusion period and up to 80 minutes post-infusion): no clinically significant changes
- affinity for the A1 receptor higher than for the A3 receptor [3]: 11 fold
- ventricular rate (VR) ([4]; LD 2.5 μg/kg, 5 min, Baseline 143): 129^a bpm
- ventricular rate (VR) ([4]; LD 2.5 μg/kg, 10 min, Baseline 143): 117^a bpm
- ventricular rate (VR) ([4]; LD 2.5 μg/kg, 15 min, Baseline 143): 113^b bpm
- ventricular rate (VR) ([4]; LD 2.5 μg/kg, 20 min, Baseline 143): 115^b bpm
- ventricular rate (VR) ([4]; LD 5.0 μg/kg, 5 min, Baseline 138): 115^b bpm
- ventricular rate (VR) ([4]; LD 5.0 μg/kg, 10 min, Baseline 138): 104^b bpm
- ventricular rate (VR) ([4]; LD 5.0 μg/kg, 15 min, Baseline 138): 108^b bpm
- ventricular rate (VR) ([4]; LD 5.0 μg/kg, 20 min, Baseline 138): 111^b bpm
- ventricular rate (VR) ([4]; LD 7.5 μg/kg, 5 min, Baseline 143): 110^b,c bpm
- ventricular rate (VR) ([4]; LD 7.5 μg/kg, 10 min, Baseline 143): 99^b,c bpm
- ventricular rate (VR) ([4]; LD 7.5 μg/kg, 15 min, Baseline 143): 105^b bpm
- ventricular rate (VR) ([4]; LD 7.5 μg/kg, 20 min, Baseline 143): 106^b bpm
- VR during maintenance dose ([4]; all dosing regimens, 3-hour MD): below 100 bpm
- systolic and diastolic blood pressures ([4]; during the LD): did not change significantly
- potency at slowing AV nodal conduction versus reducing heart rate (AV nodal conduction; in vivo): three times more potent at slowing AV nodal conduction than at reducing heart rate
- rate dependence of slowing AV nodal conduction (AV nodal conduction; rapid atrial pacing vs normal sinus rhythm): more potent at slowing AV nodal conduction during periods of rapid atrial pacing than during normal sinus rhythm
